# Experimental data reported in patent US6300320A, “Modulation of c-jun using inhibitors of protein kinase C” (Isis Pharmaceuticals, Inc., priority 1999, dated 2001).
# System: c-jun mRNA expression in A549 cells
# Assay: Phorbol ester (TPA) mediated AP-1 gene expression in A549 cells, Northern blotting
# Format: cell-based
# Settings: Homo sapiens, 0.5 h, 100 nM TPA for 30 minutes, no oligo, basal = 100%
# Protocol: The effect of PKC-α reduction on AP-1 transcription factor components was determined. 12-O-tetradecanoylphorbol-13-acetate (TPA) causes a time dependent accumulation of mRNA transcripts of multiple members of AP-1, including c-jun, jun-B and c-fos.
# A549 cells were treated with 100 nM ISIS 9606 (SEQ ID NO. 2) or ISIS 13009 (SEQ ID NO. 23) and DOTMA/DOPE as described in Example 13. Cells were then washed and allowed to recover for an additional 68 hours. Cells were then treated with 100 nM TPA for 30 minutes and the expression of either c-fos, jun-B, c-jun or G3PDH mRNA expression was determined by Northern blotting.
# Total RNA was extracted from cells and resolved on agarose gels as described in Example 6. These were transferred to nylon membrane (Biorad, Hercules, Calif.) and probed with ^32 P radiolabelled cDNA probes for different PKC isozymes. Additionally, gels were probed with ^32 P radiolabelled cDNA probes for c-fos, c-jun, and junB (American Type Culture Collection, Manassas, Va.). Gels were routinely stripped and reprobed with radiolabelled human […]-3-phosphate dehydrogenase (G3PDH) probe to confirm equal loading. Radioactive bands were quantified using a Phospholmager (Molecular Dynamics, Sunnyvale, Calif.). […] A scrambled control oligonucleotide was without effect on the up-regulation of any AP-1 family member. […]
smiles,measurement,value
"CCCCCCCCCCCCCC(=O)O[C@@H]1[C@@H](C)[C@@]2(O)[C@@H](C=C(CO)C[C@]3(O)C(=O)C(C)=C[C@@H]23)[C@@H]2C(C)(C)[C@]12OC(C)=O [TPA, 12-O-tetradecanoylphorbol-13-acetate]",activity at 0.1 µM,353%
